Measured values: US20260174739A1 (priority 2022, published 2026)
pIC50, pKi: −log10 of the molar value. Where two headings read alike, the source gives them in different places.

Assays:
Sigma2 receptor = Sigma2 receptor (Homo sapiens, UniProt Q5BJF2); test: Sigma receptor affinity assay ([3H]-DTG binding), Sigma2R
Procedure: Cell membrane: the membrane protein adopted in the experiment was extracted from an HEK293 cell strain stably expressing Sigmal receptor and an HEK293 cell strain stably expressing Sigma2 receptor, which were constructed by WuXi AppTec.
• 1) Detection buffer: 50 mM Tris-HCl, pH=7.4, stored at 4° C. • 2) Sigma 1R assay plate washing buffer: 50 mM Tris-HCl, pH=7.4, stored at 4° C.; sigma2R assay plate washing buffer: 50 mM Tris-HCl, 100 mM NaCl, pH=7.4, stored at 4° C. • 3) The compounds were diluted to each working concentration: 4-fold serial gradient dilutions for 8 concentrations.
The affinity inhibition constant Ki was calculated using the Cheng Prusoff equation: […]

human SERT = human SERT (Homo sapiens, UniProt P31645); test: Inhibitory activity assay against 5-HT transporter (neurotransmitter transporter uptake assay kit); format: cell-based; conditions: HEK-293 cells overexpressing human SERT; read-out: 5-HTT (IC50)
Procedure: In HEK-293 cells overexpressing human SERT, the transporter inhibitory effect of the test compound on human SERT was assayed using a Neurotransmitter transporter uptake assay kit (Molecular devices).

human DAT = human DAT (Homo sapiens, UniProt Q01959); test: DAT transporter inhibitory activity test (neurotransmitter transporter uptake assay kit); format: cell-based
[1] = In vivo metabolism (pharmacokinetic) experiment in mice; parameters: species or system male ICR mice; conditions: mouse
Method in brief: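 Fasted (12 h) male ICR mice received compound in 5% DMSO/5% Solutol HS15/90% saline at 2.5 mg/kg iv or 10 mg/kg po. Plasma and brain sampled 0.083–8 h (n=3 per time point) and analysed by LC-MS/MS. Parameters derived by non-compartmental analysis.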

male C57 mice = test: Forced swim test; format: in vivo; conditions: intraperitoneal injection, test 0.5 h after dosing, motionless time in last 4 min
Procedure: Drug: the compound of the present disclosure was first uniformly mixed with 5% DMSO and 5% Solutol® HS 15. hysiological saline was then added to make up 90% of the final volume. The mixture was prepared at an appropriate concentration immediately before use.
Animal: male C57 mice, about 22 g. The animals were randomly divided into a blank control group and test drug groups, 8 animals per group, and mice in each group were administered either the vehicle or the test compound via intraperitoneal injection.
Experimental steps: the mice were subjected to forced swim test 0.5 h after dosing. The water level in the forced swim device was 45 cm, and the water temperature was 25° C. The mice were placed in an experimental room to adapt to the environment for 1 h before the experiment began. When the experiment began, the mice were placed in the device for 6 min, and the whole process was recorded by a camera. Only the motionless time of the mice in the last 4 min was counted when data were analyzed.

human NET = human NET (Homo sapiens, UniProt P23975); test: NET transporter inhibitory activity test (neurotransmitter transporter uptake assay kit); format: cell-based
Procedure: Transporter inhibition of human DAT and NET expressed in HEK-293 cells was assessed using a neurotransmitter transporter uptake assay kit. The assay was performed as described in the kit instructions, using centanafadine as a positive control. The specific procedures were as follows:
First day cell plating: HEK 293T cells were digested with trypsin, centrifuged, resuspended with a medium, counted, and seeded into a 6 cm culture dish at a density of 3×10^6 cells/well.
Second day cell transfection: HEK 293T cells were subjected to medium exchange, and then A, B tubes were prepared for NET-pcDNA5/FRT plasmid to be transfected. 200 μL of Opti-MEM was added to tube A, and 10 μL of Lipofectamine™ 3000 was added. The mixture was mixed well. 200 μL of Opti-MEM was added to tube B, and 5 μg of NET-pcDNA5/FRT plasmid was added. The mixture was mixed well, and then 10 μL of P3000™ was added to tube B. The mixture was mixed well (plasmid to transfection reagent ratio 1 μg:2 μL). The diluted solution of tube A was added to the diluted solution of tube B. The mixture was mixed well, and incubated at room temperature for 15 min. Finally, the mixture was gently added to the cells that had been subjected to medium exchange, gently shaken to mix, and then incubated overnight in an incubator at 37° C. with a carbon dioxide concentration of 5%. The cells were used for compound functional activity assays 18-20 h after transfection.
• a) After overnight transfection of NET cells, the cells were digested with trypsin, resuspended with DMEM+10% Dialyzed FBS medium, seeded into a 384-well plate at 20000 cells/well, and incubated overnight. Stably transfected DAT cells were digested with trypsin, resuspended with DMEM+10% Dialyzed FBS medium, seeded into a 384-well plate at 2500 cells/well, and incubated overnight. • b) 1× Assay buffer was prepared according to the kit instruction for later use; the positive compound and the test compound were serially diluted with DMSO, and then diluted to 2× with 1× assay buffer. • c) The medium was removed from the 384-well plate by centrifugation. • d) 16 μL of the compound prepared in step b) was added to corresponding experimental wells, wherein an initial concentration of 2× positive control compound was added to the positive control well, and 0.2% DMSO buffer was added to the negative control well. After centrifuging, the plate was incubated at 37° C. for 30 min. • e) A detection reagent was prepared using 1×HBSS, and 16 μL of the detection reagent was added to each well. After centrifuging, the plate was incubated at 37° C. for 60 min. • f) After incubation, the reading at 510 nm under the excitation of the detection wavelength of 425 nm was measured using a microplate reader. Curve fitting and IC50 calculation were performed using GraphPad Prism software nonlinear regression method.

[2] = Human liver microsome assay (metabolic stability); format: in vitro ADME; conditions: pH 7.4
Procedure: Control and reagent: NADPH, magnesium chloride, testosterone, phosphate buffer, etc. were supplied by Dalian Meilun Biotech Co., Ltd., etc.
Liver microsome: human liver microsomes were supplied by Corning.
Experimental step: the liver microsome incubations were performed in 96-well plates, each incubation system having a volume of 200 μL, in a medium of 0.1 M phosphate buffer (pH 7.4), including liver microsomes at a final concentration of 0.2 mg/mL, 1 μM of the test drug, 3.0 mM MgCl2, 0.01% DMSO, 0.5% acetonitrile, and 2.0 mM NADPH. The incubation system described above without NADPH was pre-incubated at 37° C. for 5 min using a rotary water bath constant temperature oscillator. NADPH was added to initiate the reaction. At 0, 5, 15, 30, and 60 min, 20 μL of the sample was taken out from the incubation system after mixing well and added to 200 μL of acetonitrile containing an internal standard to terminate the reaction. Under the same conditions, 1 μM testosterone was used as a positive control to assess the reliability of the reaction system. For the negative control, phosphate buffer was used instead of NADPH, and all other incubation conditions remained the same. At 60 min, 20 μL of the sample was taken out after mixing well and added to 200 μL of termination solution containing an internal standard to terminate the reaction.
Sample analysis: After treatments such as precipitated protein extraction with an organic solvent, the incubated sample was analyzed using liquid chromatography-tandem mass spectrometry (LC-MS/MS). The concentrations of the test drug or the positive control drug in the sample were semi-quantified. The concentration in the sample was expressed using the ratio of the analyte peak area to the internal standard peak area.
Data processing and analysis: A standard curve of the In residual rate of the drug in the incubation system with respect to the incubation time was plotted by using Excel software, linear regression was performed to obtain a slope k, and the half-life T1/2 (min) and the intrinsic clearance CLint (mL/min/kg) were calculated according to the following formula: […]

[3] = HEK293 membranes stably expressing Sigma2 receptor, [3H]-DTG 5 nM, read-out: Sigma2R (Ki)
[4] = DAT stably transfected HEK cells, read-out: DAT (IC50)
[5] = NET transiently transfected HEK 293T cells, read-out: NET (IC50)
[6] = human liver microsomes 0.2 mg/mL, 1 μM test drug, NADPH, 37° C., read-out: Half-life (t1/2, min)
[7] = human liver microsomes 0.2 mg/mL, 1 μM test drug, NADPH, 37° C., read-out: Intrinsic clearance (Clint, mL/min/kg)
[8] = male ICR mice, oral 10 mg/kg vs iv 2.5 mg/kg, read-out: F (%)
[9] = male ICR mice, oral 10 mg/kg, plasma, read-out: AUC0-inf(po)
[10] = male ICR mice, oral 10 mg/kg, plasma, read-out: Cmax (po)
[11] = male ICR mice, oral 10 mg/kg, plasma, read-out: T1/2 (po) (converted)

Sequence of human SERT (P31645 whole entry): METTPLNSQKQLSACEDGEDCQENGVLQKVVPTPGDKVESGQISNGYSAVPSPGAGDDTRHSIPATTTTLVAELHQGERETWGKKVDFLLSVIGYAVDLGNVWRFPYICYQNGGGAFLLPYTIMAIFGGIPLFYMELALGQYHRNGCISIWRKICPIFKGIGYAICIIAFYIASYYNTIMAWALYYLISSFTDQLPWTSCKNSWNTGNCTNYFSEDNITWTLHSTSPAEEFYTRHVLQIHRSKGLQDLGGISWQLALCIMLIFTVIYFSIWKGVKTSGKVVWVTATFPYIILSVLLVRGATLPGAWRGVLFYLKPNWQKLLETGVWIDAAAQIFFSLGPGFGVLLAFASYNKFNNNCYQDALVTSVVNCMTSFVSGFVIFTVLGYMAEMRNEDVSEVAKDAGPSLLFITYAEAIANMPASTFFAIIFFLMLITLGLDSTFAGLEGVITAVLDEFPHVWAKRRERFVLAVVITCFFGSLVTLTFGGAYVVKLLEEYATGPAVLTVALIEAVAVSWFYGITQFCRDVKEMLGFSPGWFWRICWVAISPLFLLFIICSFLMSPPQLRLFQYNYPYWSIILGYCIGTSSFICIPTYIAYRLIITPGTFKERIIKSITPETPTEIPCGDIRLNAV
Sequence of human NET (P23975 whole entry): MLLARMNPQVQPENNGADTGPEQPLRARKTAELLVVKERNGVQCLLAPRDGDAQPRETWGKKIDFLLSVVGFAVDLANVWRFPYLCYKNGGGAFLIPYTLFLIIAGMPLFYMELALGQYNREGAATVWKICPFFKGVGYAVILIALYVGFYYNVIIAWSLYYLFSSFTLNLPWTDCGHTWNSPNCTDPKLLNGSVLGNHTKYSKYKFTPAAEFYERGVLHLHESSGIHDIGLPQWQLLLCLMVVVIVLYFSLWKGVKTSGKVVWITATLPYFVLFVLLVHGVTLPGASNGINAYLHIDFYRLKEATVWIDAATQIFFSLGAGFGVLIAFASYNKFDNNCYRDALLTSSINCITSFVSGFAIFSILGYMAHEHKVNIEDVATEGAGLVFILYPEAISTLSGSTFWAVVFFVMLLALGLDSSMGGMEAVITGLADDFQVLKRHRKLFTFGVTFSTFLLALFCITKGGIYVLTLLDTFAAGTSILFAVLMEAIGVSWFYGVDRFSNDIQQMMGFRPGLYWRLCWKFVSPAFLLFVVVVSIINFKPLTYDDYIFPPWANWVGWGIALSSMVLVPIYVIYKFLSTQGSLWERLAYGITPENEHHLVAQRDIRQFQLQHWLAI
Sequence of Sigma2 receptor (Q5BJF2 whole entry, species assumed): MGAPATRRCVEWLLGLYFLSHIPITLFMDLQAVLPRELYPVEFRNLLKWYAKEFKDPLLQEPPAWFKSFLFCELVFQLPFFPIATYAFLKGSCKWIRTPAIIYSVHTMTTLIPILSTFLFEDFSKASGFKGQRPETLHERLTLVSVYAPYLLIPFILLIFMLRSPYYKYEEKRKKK
Sequence of human DAT (Q01959 whole entry): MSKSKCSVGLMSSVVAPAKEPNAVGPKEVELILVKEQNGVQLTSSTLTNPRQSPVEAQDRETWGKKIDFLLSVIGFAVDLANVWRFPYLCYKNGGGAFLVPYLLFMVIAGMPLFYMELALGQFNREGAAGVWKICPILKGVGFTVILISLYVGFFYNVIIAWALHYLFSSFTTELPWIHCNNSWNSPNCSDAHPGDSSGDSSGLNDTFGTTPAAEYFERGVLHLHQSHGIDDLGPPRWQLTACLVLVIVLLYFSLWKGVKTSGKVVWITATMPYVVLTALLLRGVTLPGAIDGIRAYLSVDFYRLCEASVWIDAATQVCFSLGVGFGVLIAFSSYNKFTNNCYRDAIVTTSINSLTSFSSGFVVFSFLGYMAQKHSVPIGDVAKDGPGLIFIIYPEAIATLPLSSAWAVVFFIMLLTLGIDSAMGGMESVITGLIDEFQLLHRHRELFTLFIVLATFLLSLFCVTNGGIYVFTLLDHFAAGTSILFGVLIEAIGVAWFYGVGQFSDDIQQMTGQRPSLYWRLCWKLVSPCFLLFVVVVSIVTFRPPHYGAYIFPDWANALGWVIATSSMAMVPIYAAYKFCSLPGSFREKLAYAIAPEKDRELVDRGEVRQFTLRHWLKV

Structure (SMILES): CNC1(c2ccccc2)CCc2nc(N)sc2C1 (racemic) [rac-A3, N^6-methyl-6-phenyl-4,5,6,7-tetrahydrobenzothiazole-2,6-diamine]
- pKi (Sigma2 receptor; [3]): 6.91
- pIC50 (human SERT): 5.92
- pIC50 (human DAT): 6.00
- AUC(0-inf) ([1]; male, ICR, po, 10 mg/kg, AUC0-inf(po) (ng*h/mL)): 1160 ng·h/mL
- Cmax ([1]; male, ICR, po, 10 mg/kg, Cmax (po) (ng/mL)): 330 ng/mL
- bioavailability ([1]; male, ICR, po, 10 mg/kg, F (%)): 56%
- half-life ([1]; male, ICR, po, 10 mg/kg, T1/2 (po) (h)): 2.85 h
- Effective dose (male C57 mice): 3 mg/kg

Structure (SMILES): N[C@@]1(c2ccccc2)CCc2ccsc2C1 [S-A19]
- pKi (Sigma2 receptor; [3]): 5.95

Structure (SMILES): CN[C@]1(c2ccccc2)CCc2ncsc2C1 [R-A13]
- pKi (Sigma2 receptor; [3]): 6.54

Structure (SMILES): c1ccc([C@@]2(N3CCCC3)CCc3[nH]ncc3C2)cc1 [R-A12]
- pIC50 (human DAT; [4]): 5.70
- pIC50 (human NET; [5]): 5.42

Structure (SMILES): Nc1nc2c(s1)CC(N)(c1cccc(F)c1)CC2 (racemic) [rac-A10, 6-(3-fluorophenyl)-4,5,6,7-tetrahydrobenzothiazole-2,6-diamine]
- pIC50 (human SERT): 5.89
- pIC50 (human DAT; [4]): 5.18
- pIC50 (human NET): 5.38

Structure (SMILES): Nc1nc2c(s1)CC(c1cccc(Cl)c1)(N1CCCC1)CC2 (racemic) [rac-A51, 6-(3-chlorophenyl)-6-(pyrrolidin-1-yl)-4,5,6,7-tetrahydrobenzothiazol-2-amine]
- pIC50 (human SERT): 5.92
- pIC50 (human DAT; [4]): 6.70
- pIC50 (human NET): 6.52

Structure (SMILES): CN[C@]1(c2ccccc2)CCc2nc(N)sc2C1 [R-A3]
- pKi (Sigma2 receptor; [3]): 5.75
- pIC50 (human SERT): 5.92

Structure (SMILES): N[C@]1(c2ccccc2)CCc2ccsc2C1 [R-A19]
- pKi (Sigma2 receptor; [3]): 5.90
- pIC50 (human SERT): 5.92

Structure (SMILES): CNC1(c2ccccc2)CCc2ncsc2C1 (racemic) [rac-A13, N-methyl-6-phenyl-4,5,6,7-tetrahydrobenzothiazol-6-amine]
- half-life at 1 μM [2, 6]: 266 min
- CLint scaled at 1 μM [2, 7]: 15.2 mL/min/kg
- pKi (Sigma2 receptor): 6.51
- bioavailability [1, 8]: 78%
- AUC(0-inf) [1, 9]: 845 ng·h/mL
- Cmax [1, 10]: 518 ng/mL
- half-life [1, 11]: 1.98 h
- Effective dose (male C57 mice): 2.5 mg/kg

Structure (SMILES): CN[C@@]1(c2ccccc2)CCc2nc(N)sc2C1 [S-A3]
- pKi (Sigma2 receptor; [3]): 6.00
- pIC50 (human DAT; [4]): 5.80

Structure (SMILES): CN(C)C1(c2ccccc2)CCc2nc(N)sc2C1 (racemic) [rac-A114, N^6,N^6-dimethyl-6-phenyl-4,5,6,7-tetrahydrobenzothiazole-2,6-diamine]
- pIC50 (human SERT): 6.00
- pIC50 (human DAT; [4]): 6.00
- pIC50 (human NET): 5.46

Structure (SMILES): Nc1nc2c(s1)CC(c1cccc(Cl)c1)(N1CCCCC1)CC2 (racemic) [rac-A49, 6-(3-chlorophenyl)-6-(piperidin-1-yl)-4,5,6,7-tetrahydrobenzothiazol-2-amine]
- half-life at 1 μM [2, 6]: 117 min
- CLint scaled at 1 μM [2, 7]: 34.7 mL/min/kg
- pIC50 (human SERT): 5.92
- pIC50 (human DAT; [4]): 6.48
- pIC50 (human NET): 5.60

Structure (SMILES): Nc1nc2c(s1)CC(c1ccccc1)(N1CCCCC1)CC2 (racemic) [rac-A48, 6-phenyl-6-(piperidin-1-yl)-4,5,6,7-tetrahydrobenzothiazol-2-amine]
- CLint scaled at 1 μM ([2]; human, microsomes): 7.4 mL/min/kg
- half-life at 1 μM ([2]; human, microsomes): 547 min
- pIC50 (human DAT): 6.12
- pIC50 (human NET; [5]): 5.34
- Effective dose (male C57 mice): 1 mg/kg

Structure (SMILES): NC1(c2ccccc2)CCc2ccsc2C1 (racemic) [rac-A19, 6-phenyl-4,5,6,7-tetrahydrobenzothiophen-6-amine]
- half-life at 1 μM [2, 6]: 80 min
- CLint scaled at 1 μM [2, 7]: 50.6 mL/min/kg
- pKi (Sigma2 receptor): 6.28
- bioavailability [1, 8]: 48%
- AUC(0-inf) [1, 9]: 797 ng·h/mL
- Cmax [1, 10]: 284 ng/mL
- half-life [1, 11]: 2.84 h

Structure (SMILES): Nc1nc2c(s1)CC(c1ccccc1)(N1CCCC1)CC2 (racemic) [rac-A50, 6-Phenyl-6-(Pyrrolidin-1-Yl)-4,5,6,7-Tetrahydrobenzothiazol-2-amine]
- pIC50 (human SERT): 5.77
- pIC50 (human DAT; [4]): 7.00
- bioavailability [1, 8]: 38%
- AUC(0-inf) [1, 9]: 321 ng·h/mL
- Cmax [1, 10]: 150 ng/mL
- half-life [1, 11]: 1.48 h
- pIC50 (human NET): 6.10
